Measured values from patent US20060199172A1, “Laminated cell culture containing hepatocytes and method for detecting endocrine-like substance” (FUJI PHOTO FILM CO., LTD., priority 2005, published 2006).

What was measured:
rat primary hepatocytes = test: AST release into the medium from cultured hepatocytes after adding the substance; format: cell-based; details: 0.1 μg/ml, measured over time
Description: Rat primary hepatocytes (collected by the method described in “Techniques of Tissue Culture, Second edition”, Ed. by Japan Tissue Culture Association, Asakura Publishing, p. 135) were inoculated on a 12-well microplate (FALCON, No. 3505) in an amount of 50000 cells/well and cultured for 24 hours under the conditions of 37° C. and 5% CO2. Separately, the carrier for cell culture prepared in Example 1 was adhered to bottom of a 20-mm petri dish (FALCON, No. 2163) with a small amount of sterilized water. 20,000 cells of rat vascular endothelial cells A-10 (Dainippon Pharmaceutical Co., Ltd.) were inoculated on the carrier for cell culture and cultured for 72 hours under the conditions of 37° C. and 5% CO2. As the medium, 10% FBS Eagle's MEM medium (GIBCO) was used for both cultures. The rat vascular endothelial cell culture obtained was carefully placed on the aforementioned rat primary hepatocytes on the 12-well microplate so that the cell growing side contacted with the rat primary hepatocytes, and cultured for 24 hours under the conditions of 37° C. and 5% CO2. […]
The laminated cell culture prepared in Example 2 and the hepatocytes cultured as monolayer culture was added with 0.1 μg/ml of chloropramazine, and the amount of AST released into the medium was measured over time.

MCF-7 cells = test: Detection of endocrine-like substance by number of MCF-7 cells in the laminated cell culture system; format: cell-based; details: laminated cell culture system (MCF-7 + rat primary hepatocytes + rat vascular endothelial cells), 0.1 μg/ml, 14 days; compared with MCF-7 only and monolayer hepatocytes + MCF-7
Description: 40,000 of estrogen-like substance detection cells (MCF-7) were inoculated on a 12-well microplate and cultured for 7 days under the conditions of 37° C. and 5% CO2 to prepare an MCF-7 cell layer.
The carrier for cell culture prepared in Example 1 was adhered to bottom of a 20-mm petri dish (FALCON, No. 2163) with a small amount of sterilized water, and 40,000 cells of rat primary hepatocytes (collected by the method described in “Techniques of Tissue Culture, Second edition”, Ed. by Japan Tissue Culture Association, Asakura Publishing, p. 135) were inoculated on the carrier for cell culture and cultured for 24 hours under the conditions of 37° C. and 5% CO2. In the same manner, 20,000 cells of rat vascular endothelial cells A-10 (Dainippon Pharmaceutical Co., Ltd.) were inoculated on the carrier for cell culture prepared in Example 1 and cultured for 72 hours under the conditions of 37° C. and 5% CO2.
The rat primary hepatocyte cell culture obtained was carefully placed on the MCF-7 cell layer on the 12-well microplate so that the side of the growth of the rat primary hepatocyte was on the side of the MCF-7 cells, and cultured for 24 hours under the conditions of 37° C. and 5% CO2. […]

rat uterus = details: in vivo; cited from earlier work

Row | SMILES | amount of AST released into the medium (rat primary hepatocytes; laminated cell culture (rat primary hepatocytes + rat vascular endothelial cells A-10)) | amount of AST released into the medium (rat primary hepatocytes; primary hepatocytes cultured as monolayer culture) | number of MCF-7 cells (MCF-7 cells) | rat uterus proliferation test result (rat uterus)
1 | CN(C)CCCN1c2ccccc2Sc2ccc(Cl)cc21 [chloropramazine] | increase in the amount of AST was observed | AST was not detected |  | 
2 | CC(C)c1cc(C(C)C)c2ccccc2c1 [2,4-diisopropylnaphthalene] |  |  | maximum value | positive
